Laboratory results reported in patent US20110178050A1, “USE OF CYCLOLIGNANS FOR THE TREATMENT OF A HYPERACTIVE IMMUNE SYSTEM” (Axelar AB, priority 2008, published 2011).
“And” between values parts separate entries of the source, which are not always exact repeats. Equal entries are not always repeated.

Experiments:
human T lymphocytes = experiment: 3H-thymidine incorporation, Concanavalin A stimulated proliferation of lymphocytes from patients; type: cell-based; conditions: for 3H-thymidine in cyclolignan-treated lymphocytes (% of 3H-thymidine in control lymphocytes): 2.5 microM, Con A three days, 18 h incorporation; for Proliferation of peripheral blood T lymphocytes, in words: lymphocytes of patients with autoimmune diseases
Method: The effects of picropodophyllin and deoxypicropodophyllin on human T lymphocyte function, i.e. the proliferation capacity of human T lymphocytes in response to an antigen/mitogen, were measured using a time course tritium labelled thymidine incorporation assay. Lymphocytes from peripheral blood of patients were purified by ficoll-hypaque (Pharmacia, Amersham) and were distributed in 96 well plates at 100,000 cells per well, and all samples were in triplicates. Cells were kept in RPMI 1640 medium (Life technologies) supplemented with 10% human serum (Sigma), 100 units/mL penicillin (Sigma), 100 microg/mL streptomycin (Sigma) and 2 mM L-glutamine (Sigma). Proliferation of lymphocytes was stimulated with the T lymphocyte mitogen Concanavalin A (Con A) 10 microg/mL (Sigma). After three days incubation with Con A, with and without the cyclolignans, 1 microCi ^3H-thymidine (Amersham) was added to each well, and after another eighteen hours cells were harvested and washed, and the amount of ^3H-thymidine incorporated into newly synthesized DNA determined by scintillation counting.

helper T lymphocytes = experiment: Activation of helper T lymphocytes in human blood (FACS, CD4/CD69); type: cell-based; conditions: 30 min
Method: (§1) The effects of picropodophyllin and deoxypicropodophyllin on the activation of subgroups of lymphocytes in human blood were determined by flow cytometry (FACS). Lymphocytes from human peripheral blood were purified by ficoll-hypaque (Pharmacia, Amersham) and then distributed in FACS tubes at 500,000 cells in 0.5 mL per tube. Cells were kept in RPMI medium (Life technologies) supplemented with 10% bovine serum […] (BGS; Sigma), 1% penicillin-streptomycin (Sigma) and 1% glutamine (Sigma). The cells were incubated for 30 min at room temperature in the absence (control lymphocytes) or presence of picropodophyllin and deoxypicropodophyllin at 0.1 and 2.5 microM concentrations. After washing, the cells were stained 15 min for the surface molecules CD4, CD8 and CD69. CD4 and CD8 are expressed by two subsets of T lymphocytes, i.e. helper T cells and cytotoxic T cells, respectively, and CD69 is a lymphocyte activation marker. The staining was performed with the following fluorophore conjugated antibodies: anti-CD4PB; anti-CD8APC; anti-CD69APCCy7 (Beckton Dickinson). The cells were then washed with PBS containing 2% FCS and 0.05% NaN3 (FACS buffer) and then stained with […] (PI)/FITC Annexin V (Beckton Dickinson) to determine apoptosis of cells, and after incubation for another 15 min and washing, the cells were analysed by flow cytometry (FACSCalibur; Beckton Dickinson). Data were evaluated using the Cellquest computer software (Beckton Dickinson).

[1] = tested on: lymphocytes from human peripheral blood; experiment: Apoptosis of human blood lymphocytes (PI/Annexin V, FACS); type: cell-based; conditions: 30 min
Method: as §1

mice = experiment: Systemic toxicity of trans and cis isomers of cyclolignans in mice; conditions: nude mice; for Survival (in words) / Toxic signs (in words): 28 mg/kg/d intraperitoneally daily for 5 days; for No. of surviving mice/No. of treated mice: 28 mg/kg/d intraperitoneally daily
Method: The experiment was carried out to determine the significance of the stereochemistry of cyclolignans for their general toxicity by investigating systemic toxic effects of trans and cis isomers of cyclolignans in mice. Five-week old pathogen-free nude mice (nu/nu) were used and housed within plastic isolators in a sterile facility. Experimental treatments with podophyllotoxin, deoxypodophyllotoxin, picropodophyllin and deoxypicropodophyllin were performed by injecting each compound dissolved in 10 microL of a mixture of DMSO and saline intraperitoneally daily for 5 days. The dose injected once daily was 28 mg/kg/d and 6 mice were used for each drug. Control mice were treated with the vehicle only.
The mice were checked daily for signs of discomfort, diseases and weight loss.

cytotoxic T lymphocytes = experiment: Activation of cytotoxic T lymphocytes in human blood (FACS, CD8/CD69); type: cell-based; conditions: for CD8, percent cytotoxic T cells of total cells (events) / CD8/CD69, percent activated cytotoxic T cells of total cytotoxic T cells: 30 min; for Effect on number of activated cytotoxic T lymphocytes (CD8/CD69), in words: 0.1 and 2.5 microM
Method: as §1

blood lymphocytes [2] = experiment: Effect of seven-day treatment on blood lymphocytes in mice; type: in vivo; conditions: 20 mg/kg/12 h intraperitoneally, 7 days
Method: In this experiment, healthy 20-gram mice were treated with picropodophyllin by intraperitoneal injections twice daily, the dose being 20 mg/kg/12 h using DMSO/sunflower oil, 9:1, as vehicle. The control group was treated with the vehicle only (totally per day: 20 μL DMSO/oil). Each group included 3 mice. After treatment for 7 days, the mice were sacrificed and blood samples were taken. The number of blood cells in the samples was counted using an Advia 120 Hematology system from Bayer AB (Diagnostica).

blood lymphocytes [3] = experiment: Effect of two-week treatment on blood lymphocytes in rats; type: in vivo, rats (Sprague-Dawley); conditions: 20 mg/kg/12 h intraperitoneally, 14 days
Method: In this experiment, healthy 200-grams rats (Sprague-Dawley) were treated with picropodophyllin by intraperitoneal injections twice daily, the dose being 20 mg/kg/12 h, using DMSO/sunflower oil, 9:1, as vehicle. The control group was treated with the vehicle only (totally per day: 200 μL DMSO). Each group included 5 rats. After treatment for 14 days, the rats were sacrificed and blood samples were taken. The number of blood cells in the samples was counted using an Advia 120 Hematology system from Bayer AB (Diagnostica).

[4] = MS (multiple sclerosis) patients
[5] = RA (rheumatoid arthritis) patients
[6] = UC (ulcerative colitis) patients

Row | SMILES | 3H-thymidine in cyclolignan-treated lymphocytes (% of 3H-thymidine in control lymphocytes) (human T lymphocytes; CD (Crohn's disease) patients) [%] | 3H-thymidine in cyclolignan-treated lymphocytes (% of 3H-thymidine in control lymphocytes) (human T lymphocytes; [4]) [%] | 3H-thymidine in cyclolignan-treated lymphocytes (% of 3H-thymidine in control lymphocytes) (human T lymphocytes; [5]) [%] | 3H-thymidine in cyclolignan-treated lymphocytes (% of 3H-thymidine in control lymphocytes) (human T lymphocytes; [6]) [%] | Proliferation of peripheral blood T lymphocytes, in words (human T lymphocytes) | CD4, percent helper T cells of total cells (events) (helper T lymphocytes; 0.1 μM) [%] | CD4/CD69, percent activated helper T cells of total helper T cells (helper T lymphocytes; 0.1 μM) [%] | CD4, percent helper T cells of total cells (events) (helper T lymphocytes; 2.5 μM) [%] | CD4/CD69, percent activated helper T cells of total helper T cells (helper T lymphocytes; 2.5 μM) [%] | ANNEXIN V, percent of total cells ([1]; 0.1 μM) [%] | PI ANNEXIN V, percent of total cells ([1]; 0.1 μM) [%] | PI, percent of total cells ([1]; 0.1 μM) [%] | ANNEXIN V, percent of total cells ([1]; 2.5 μM) [%] | Survival (in words) (mice) | Toxic signs (in words) (mice) | No. of surviving mice/No. of treated mice (mice; Day 1) | No. of surviving mice/No. of treated mice (mice; Day 2) | No. of surviving mice/No. of treated mice (mice; Day 3) | No. of surviving mice/No. of treated mice (mice; Day 4) | No. of surviving mice/No. of treated mice (mice; Day 5) | further results
1 | COc1cc([C@@H]2c3cc4c(cc3C[C@H]3COC(=O)[C@H]32)OCO4)cc(OC)c1OC [Deoxypicropodophyllin] | 8 | 8 | 7 | 10 | suppressed | 36.7 | 13.2 | 37.1 | 7.5 | 1.3 | 9.2 | 0 | 1.5 | survived the whole 5-day period | did not exhibit any obvious toxic signs | 6/6 | 6/6 | 6/6 | 6/6 | 6/6 | 3H-thymidine in cyclolignan-treated lymphocytes (% of 3H-thymidine in control lymphocytes) (human T lymphocytes; AD (Alzheimer's disease) patients): 9%; PI ANNEXIN V, percent of total cells ([1]; 2.5 μM): 9.3%; PI, percent of total cells ([1]; 2.5 μM): 0%; CD8, percent cytotoxic T cells of total cells (events) (cytotoxic T lymphocytes; 0.1 μM): 34.7%; CD8/CD69, percent activated cytotoxic T cells of total cytotoxic T cells (cytotoxic T lymphocytes; 0.1 μM): 4.1%; CD8, percent cytotoxic T cells of total cells (events) (cytotoxic T lymphocytes; 2.5 μM): 32.8%; CD8/CD69, percent activated cytotoxic T cells of total cytotoxic T cells (cytotoxic T lymphocytes; 2.5 μM): 0.9%; Effect on number of activated cytotoxic T lymphocytes (CD8/CD69), in words (cytotoxic T lymphocytes): dose-dependently decreased
2 | COc1cc([C@@H]2c3cc4c(cc3C[C@H]3COC(=O)[C@@H]32)OCO4)cc(OC)c1OC [Deoxypodophyllotoxin, reference compound] |  |  |  |  |  |  |  |  |  |  |  |  |  | after 3 days they were all dead | serious toxic signs on the second day | 6/6 | 4/6 | 0/6 | 0/6 | 0/6 | 
3 | COc1cc([C@@H]2c3cc4c(cc3[C@H](O)[C@H]3COC(=O)[C@@H]23)OCO4)cc(OC)c1OC [Picropodophyllin] | 8 | 10 | 15 | 13 | suppressed | 36.7 | 11.0 | 36.3 | 9.7 | 0.9 | 9.4 | 0 | 0.9 | survived the whole 5-day period | did not exhibit any obvious toxic signs | 6/6 | 6/6 | 6/6 | 6/6 | 6/6 | Lymphocytes in blood (blood lymphocytes [2]; individual mice, listed as PPP, 20 mg/kg): 3e+07 L⁻¹ and 1e+07 L⁻¹ and 0 L⁻¹; Effect on number of blood lymphocytes (in words) (blood lymphocytes [2]; mice): reduced the number of blood lymphocytes; Lymphocytes in blood (blood lymphocytes [3]; individual rats, listed as PPP, 20 mg/kg): 3.16e+09 L⁻¹ and 4.5e+08 L⁻¹ and 4.2e+09 L⁻¹ and 2.8e+09 L⁻¹ and 3.86e+09 L⁻¹; Decrease of blood lymphocytes (blood lymphocytes [3]; rats, versus controls): more than 50%; 3H-thymidine in cyclolignan-treated lymphocytes (% of 3H-thymidine in control lymphocytes) (human T lymphocytes; AD patients): 7%; PI ANNEXIN V, percent of total cells ([1]; 2.5 μM): 10.5%; PI, percent of total cells ([1]; 2.5 μM): 0%; CD8, percent cytotoxic T cells of total cells (events) (cytotoxic T lymphocytes; 0.1 μM): 35.0%; CD8/CD69, percent activated cytotoxic T cells of total cytotoxic T cells (cytotoxic T lymphocytes; 0.1 μM): 3.2%; CD8, percent cytotoxic T cells of total cells (events) (cytotoxic T lymphocytes; 2.5 μM): 34.8%; CD8/CD69, percent activated cytotoxic T cells of total cytotoxic T cells (cytotoxic T lymphocytes; 2.5 μM): 1.8%; Effect on number of activated cytotoxic T lymphocytes (CD8/CD69), in words (cytotoxic T lymphocytes): dose-dependently decreased
4 | COc1cc([C@@H]2c3cc4c(cc3[C@H](O)[C@H]3COC(=O)[C@H]23)OCO4)cc(OC)c1OC [Podophyllotoxin, reference compound] |  |  |  |  |  |  |  |  |  |  |  |  |  | on the second day all of the animals were dead | became quickly sick | 2/6 | 0/6 | 0/6 | 0/6 | 0/6 | 
